Test results: paper PMC5779714, “Metallochaperone UreG serves as a new target for design of urease inhibitor: A novel strategy for development of antimicrobials” (PLoS Biology, 2018)
“And” between values parts separate entries of the source, which are not always exact repeats. Equal values may be shown once. Read-outs that look alike come from different tables or passages of the source.

Key:
UreG [1] = molecular target: T1, UreG (Helicobacter pylori, UniProt Q09066); assay: biochemical; type: biochemical, H. pylori
Experimental: (§1) A Malachite Green Phosphate Assay Kit (Abcam) was utilized to quantify the hydrolysis of GTP by UreG under various conditions. […] GTPase activity of UreG was triggered through the addition of 10 mM KHCO3, after which the reaction was incubated at 37°C for 30 min; then, the free phosphate from hydrolysis of GTP was determined. […] To eliminate the potential effect of small compounds on malachite green assay, the assay included a subtraction of the absorbance of reaction with the same amounts of compounds but without UreG enzyme for each reading.

urease [2] = assay: Phenol-hypochlorite urease assay, lysate of E. coli with urease gene cluster excluding ureG (pHP8080ΔG) supplemented with metal-treated UreG
[3] = parameters: method as in PMID 22179820; conditions: cited from earlier work
[4] = molecular target: urease from jack bean, P. mirabilis, and K. aerogenes; conditions: competitive inhibitor; cited from earlier work
urease [5] = molecular target: T2, urease (Proteus mirabilis, UniProt P17086+P17087+P17088); type: biochemical
T2 construct: endogenous in cells

H. pylori = assay: Growth of H. pylori in neutral and acidic brucella broth (OD600); type: cell-based
urease [6] = system: urease
[7] = system: AGS cells exposed to H. pylori; assay: Cell infection model: AGS cells exposed to H. pylori pre-cultured with inhibitors; type: cell-based, human; conditions: H. pylori pre-cultured with 10 μM inhibitor 24 h; MOI 20; 24 h infection; Hp alone 28.8%
H. pylori urease [8] = molecular target: T3, H. pylori urease (Helicobacter pylori, UniProt P14916+P69996); assay: cell-based; type: cell-based
Target sequence in this assay (P14916 whole entry, looked up): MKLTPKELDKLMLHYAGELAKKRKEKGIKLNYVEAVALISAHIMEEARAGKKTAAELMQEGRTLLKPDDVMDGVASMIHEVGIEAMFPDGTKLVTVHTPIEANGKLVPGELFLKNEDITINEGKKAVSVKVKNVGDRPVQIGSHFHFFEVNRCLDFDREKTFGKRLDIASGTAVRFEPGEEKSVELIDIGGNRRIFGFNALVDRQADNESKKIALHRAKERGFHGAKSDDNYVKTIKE
Target sequence in this assay (P69996 whole entry, looked up): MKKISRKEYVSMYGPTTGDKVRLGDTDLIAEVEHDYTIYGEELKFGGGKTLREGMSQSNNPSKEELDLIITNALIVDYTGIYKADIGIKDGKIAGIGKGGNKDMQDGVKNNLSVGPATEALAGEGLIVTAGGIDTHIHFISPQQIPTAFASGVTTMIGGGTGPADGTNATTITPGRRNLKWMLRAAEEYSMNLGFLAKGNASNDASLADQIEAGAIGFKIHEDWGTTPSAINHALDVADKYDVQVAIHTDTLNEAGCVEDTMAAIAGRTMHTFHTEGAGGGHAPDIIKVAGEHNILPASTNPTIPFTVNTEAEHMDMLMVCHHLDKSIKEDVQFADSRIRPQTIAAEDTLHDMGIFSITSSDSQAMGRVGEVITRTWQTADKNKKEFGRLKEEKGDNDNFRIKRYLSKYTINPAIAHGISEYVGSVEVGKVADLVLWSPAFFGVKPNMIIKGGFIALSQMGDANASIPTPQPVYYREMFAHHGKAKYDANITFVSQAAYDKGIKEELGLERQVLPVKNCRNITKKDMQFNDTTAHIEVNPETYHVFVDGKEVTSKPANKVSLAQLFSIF

urease [9] = system: urease; remark: listed apart in the source
urease [10] = system: urease; remark: listed apart in the source
urease [11] = molecular target: T4, urease (Pseudomonas aeruginosa, UniProt Q9HUU5+Q9HUU6+Q9HUU8); assay: Urease activity of extracted P. aeruginosa urease (in vitro); type: biochemical
T4 construct: endogenous in cells

urease [12] = system: urease; remark: listed apart in the source
Target sequence in this assay (Q9HUU5 whole entry): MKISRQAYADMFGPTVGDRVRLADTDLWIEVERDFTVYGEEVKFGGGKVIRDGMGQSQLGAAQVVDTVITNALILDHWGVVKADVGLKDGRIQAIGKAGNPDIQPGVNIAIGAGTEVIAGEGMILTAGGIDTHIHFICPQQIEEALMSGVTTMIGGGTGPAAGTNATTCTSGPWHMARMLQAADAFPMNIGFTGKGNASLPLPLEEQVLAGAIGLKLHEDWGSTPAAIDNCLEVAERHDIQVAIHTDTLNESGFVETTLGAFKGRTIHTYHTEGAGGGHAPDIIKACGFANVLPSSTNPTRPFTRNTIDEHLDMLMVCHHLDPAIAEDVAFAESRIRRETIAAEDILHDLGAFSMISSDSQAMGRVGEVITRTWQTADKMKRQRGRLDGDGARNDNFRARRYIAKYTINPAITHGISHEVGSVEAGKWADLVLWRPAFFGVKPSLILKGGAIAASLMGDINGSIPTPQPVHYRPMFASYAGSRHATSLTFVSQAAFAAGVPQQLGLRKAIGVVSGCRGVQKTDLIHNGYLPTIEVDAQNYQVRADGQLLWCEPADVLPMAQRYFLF
Target sequence in this assay (Q9HUU6 whole entry, further chain): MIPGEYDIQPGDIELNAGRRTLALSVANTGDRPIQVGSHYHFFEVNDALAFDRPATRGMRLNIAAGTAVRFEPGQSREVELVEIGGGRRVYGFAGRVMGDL
Target sequence in this assay (Q9HUU8 whole entry, further chain): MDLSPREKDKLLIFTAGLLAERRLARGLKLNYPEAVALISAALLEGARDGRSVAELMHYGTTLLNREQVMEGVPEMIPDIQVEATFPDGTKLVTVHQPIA

[13] = system: AGS cells with H. pylori infection; assay: AGS cells with H. pylori infection, inhibitors administrated to the AGS cells (S20 Fig); type: cell-based, human; conditions: 10 μM administrated to AGS cells with H. pylori infection
From the text: As expected, low viability of AGS with the supplement of cmpd4 and cmpd8 was observed due to the toxicity of small compounds to mammalian cells. […] (PNG) Click here for additional data file.

urease [14] = system: urease; remark: listed apart in the source
Target sequence in this assay (P17088 whole entry): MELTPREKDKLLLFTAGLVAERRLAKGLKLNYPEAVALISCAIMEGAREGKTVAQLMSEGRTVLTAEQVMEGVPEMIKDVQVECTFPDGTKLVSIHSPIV
Target sequence in this assay (P17087 whole entry, further chain): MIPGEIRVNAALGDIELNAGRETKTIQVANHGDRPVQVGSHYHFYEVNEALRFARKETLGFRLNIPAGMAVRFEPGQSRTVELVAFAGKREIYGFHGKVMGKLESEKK
Target sequence in this assay (P17086 whole entry, further chain): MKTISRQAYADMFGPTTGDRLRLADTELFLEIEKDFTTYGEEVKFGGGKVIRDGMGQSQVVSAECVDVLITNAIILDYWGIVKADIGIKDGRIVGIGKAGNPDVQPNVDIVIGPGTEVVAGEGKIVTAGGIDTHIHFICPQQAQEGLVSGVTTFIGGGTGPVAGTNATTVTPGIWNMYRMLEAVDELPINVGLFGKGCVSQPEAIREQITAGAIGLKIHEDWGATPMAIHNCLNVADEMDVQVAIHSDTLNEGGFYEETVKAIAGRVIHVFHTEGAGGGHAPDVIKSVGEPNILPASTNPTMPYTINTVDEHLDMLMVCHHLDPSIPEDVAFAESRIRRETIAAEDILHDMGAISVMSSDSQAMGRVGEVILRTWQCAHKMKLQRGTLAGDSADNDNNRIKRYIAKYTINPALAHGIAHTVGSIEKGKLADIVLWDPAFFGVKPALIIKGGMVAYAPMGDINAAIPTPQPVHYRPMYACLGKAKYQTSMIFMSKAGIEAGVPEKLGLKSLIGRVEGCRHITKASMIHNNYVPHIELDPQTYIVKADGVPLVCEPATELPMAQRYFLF

urease [15] = system: urease; remark: listed apart in the source
urease [16] = system: urease; remark: listed apart in the source
urease [17] = system: urease; remark: listed apart in the source
H. pylori urease [18] = molecular target: T3, H. pylori urease; type: biochemical; parameters: endogenous in cells; host or cells: H. pylori strain 26695 or a clinical isolate
Target sequence in this assay (P69996 whole entry): as the sequence (P69996 whole entry, looked up) above
Target sequence in this assay (P14916 whole entry): as the sequence (P14916 whole entry, looked up) above

UreG [19] = molecular target: T1, UreG
Experimental: as §1
(PNG) Click here for additional data file.

[20] = molecular target: the molecule itself; assay: SEC; Superdex 200 10/300 GL; Ni-loaded UreG (UreG with NiSO4 1x, GTP 10x, MgSO4 1 mM) with 1 mM KHCO3; run with or without two molar equivalents of Bi(III) (as BiNTA), which lowered the dimer peak and gave a high molecular weight oligomer
[21] = molecular target: the molecule itself; assay: SEC; gel filtration of apo-UreE alone, with or without three molar equivalents of Bi(III) (little effect on the dimer)
[22] = increasing amounts of CBS during bacterial growth

T2 sequence (P17087 whole entry): as the sequence (P17087 whole entry, further chain) above
T2 sequence (P17088 whole entry): as the sequence (P17088 whole entry) above
T2 sequence (P17086 whole entry): as the sequence (P17086 whole entry, further chain) above
T4 sequence (Q9HUU6 whole entry): as the sequence (Q9HUU6 whole entry, further chain) above
T4 sequence (Q9HUU5 whole entry): as the sequence (Q9HUU5 whole entry) above
T4 sequence (Q9HUU8 whole entry): as the sequence (Q9HUU8 whole entry, further chain) above

[Bi+3] [Bi(III), reference compound]
Normalized GTPase activity(%) (UreG [1]; Ni-UreG+Bix1): 29.0% | Normalized GTPase activity(%) (UreG [1]; Ni-UreG+Bix2): 0.8% | Normalized GTPase activity(%) (UreG [1]; Ni-UreG+Bix3): 1.7% | inhibition of GTPase enzyme activity (UreG [1]; further addition of Bi(III) to Ni-UreG): complete inhibition | Normalized urease activity(%) (urease [2]; Ni-UreG+Bix1, incubation 40 min): 47.6% | Normalized urease activity(%) (urease [2]; Ni-UreG+Bix2, incubation 40 min): 9.3% | Normalized urease activity(%) (urease [2]; Ni-UreG+Bix3, incubation 40 min): 5.8%

O=C([O-])CN(CC(=O)[O-])CC(=O)[O-].[Bi+3] [BiNTA, Bi nitrilotriacetic acid]
log Ka of Bi-NTA [3]: 17.55

OB(O)O [boric acid]
Ki [4]: mM levels

colloidal bismuth subcitrate [CBS]
Normalized urease activity(%) (in vitro) (urease [5]; CBS 2.0 μM): 105.5% | Normalized urease activity(%) (in vitro) (urease [5]; CBS 5.0 μM): 122.1% | Normalized urease activity(%) (in vitro) (urease [5]; CBS 10.0 μM): 103.7% | Normalized urease activity(%) (in vitro) (urease [5]; CBS 20.0 μM): 121.2% | Normalized urease activity(%) (in vitro) (urease [5]; CBS 50.0 μM): 96.7% | Normalized urease activity(%) (in vitro) (urease [5]; CBS 100.0 μM): 105.5% | Normalized urease activity(%) (in vitro) (urease [5]; CBS 200.0 μM): 111.5% | OD600(pH5) (H. pylori; acidic brucella broth pH 5.0, 24 h, control 0.93): 0.23 and 0.239 | OD600 (pH7) (H. pylori; neutral medium, 24 h, control 0.18): 0.127 | Normalized urease activity(%) (urease [6]; CBS 20 μM): 63.4% | Normalized urease activity(%) (urease [6]; CBS 50 μM): 37.9% | Normalized urease activity(%) (urease [6]; CBS 100 μM): 37.9% | Normalized urease activity(%) (urease [6]; CBS 200 μM): 25.6% | ureolytic activity compared with that without CBS treatment (urease [6]; [22]): approximately 20% | Normalized cell survival (%) [7]: 65.8% ± 9.9% and 65.7658% | Normalized urease activity(%) (in vivo) (H. pylori urease [8]; CBS 2.0 μM): 89.4% | Normalized urease activity(%) (in vivo) (H. pylori urease [8]; CBS 5.0 μM): 57.6% | Normalized urease activity(%) (in vivo) (H. pylori urease [8]; CBS 10.0 μM): 35.6% | Normalized urease activity(%) (in vivo) (H. pylori urease [8]; CBS 20.0 μM): 10.2% | drop in urease activity (H. pylori urease [8]; CBS 20 μM in culture medium): ca. 90% | Normalized urease activity(%) (H. pylori urease [8]; log(CBS[μM]) 0): 94.7245% | Normalized urease activity(%) (H. pylori urease [8]; log(CBS[μM]) 0.30103): 89.449% | Normalized urease activity(%) (H. pylori urease [8]; log(CBS[μM]) 0.69897): 57.604% | Normalized urease activity(%) (H. pylori urease [8]; log(CBS[μM]) 0.845098): 46.6188% | Normalized urease activity(%) (H. pylori urease [8]; log(CBS[μM]) 1): 35.6336% | Normalized urease activity(%) (H. pylori urease [8]; log(CBS[μM]) 1.17609): 22.938% | Normalized urease activity(%) (H. pylori urease [8]; log(CBS[μM]) 1.30103): 10.2424% | Normalized urease activity(%) (H. pylori urease [8]; log(CBS[μM]) 1.39794): 10.165% | Normalized urease activity(%) (H. pylori urease [8]; log(CBS[μM]) 1.47712): 10.0876% | Normalized urease activity(%) (in vitro) (urease [9]; CBS 25.0 μM): 109.8% | Normalized urease activity(%) (in vitro) (urease [9]; CBS 50.0 μM): 113.4% | Normalized urease activity(%) (in vitro) (urease [9]; CBS 100.0 μM): 105.1% | Normalized urease activity(%) (in vitro) (urease [9]; CBS 200.0 μM): 103.9% | Normalized urease activity(%) (in vivo) (urease [10]; CBS 1.5 μM): 92.5% | Normalized urease activity(%) (in vivo) (urease [10]; CBS 3.0 μM): 74.5% | Normalized urease activity(%) (in vivo) (urease [10]; CBS 6.0 μM): 62.3% | Normalized urease activity(%) (in vivo) (urease [10]; CBS 12.0 μM): 64.2% | Normalized urease activity(%) (in vivo) (urease [10]; CBS 25.0 μM): 41.5% | Normalized urease activity(%) (urease [10]; log(CBS[μM]) 0.176091): 92.4528% | Normalized urease activity(%) (urease [10]; log(CBS[μM]) 0.477121): 74.5283% | Normalized urease activity(%) (urease [10]; log(CBS[μM]) 1.39794): 41.5094% | Normalized urease activity(%) (urease [10]; log(CBS[μM]) 3): 16.0377% | Normalized urease activity(%) (urease [10]; log(CBS[μM]) 3.30103): 13.2075% | Normalized urease activity(%) (urease [10]; log(CBS[μM]) 3.60206): 20.7547% | Normalized urease activity(%) (in vitro) (urease [11]; CBS 2.0 μM): 102.2% | Normalized urease activity(%) (in vitro) (urease [11]; CBS 5.0 μM): 93.5% | Normalized urease activity(%) (in vitro) (urease [11]; CBS 10.0 μM): 100.7% | Normalized urease activity(%) (in vitro) (urease [11]; CBS 20.0 μM): 99.1% | Normalized urease activity(%) (in vitro) (urease [11]; CBS 50.0 μM): 95.8% | Normalized urease activity(%) (in vitro) (urease [11]; CBS 100.0 μM): 101.3% | Normalized urease activity(%) (in vitro) (urease [11]; CBS 200.0 μM): 99.8% | Normalized urease activity(%) (urease [12]; log(CBS[μM]) 0.69897): 76.4151% | Normalized urease activity(%) (urease [12]; log(CBS[μM]) 1): 79.2453% | Normalized urease activity(%) (urease [12]; log(CBS[μM]) 1.30103): 68.1604% | Normalized urease activity(%) (urease [12]; log(CBS[μM]) 1.79588): 36.5566% | Ammonia in medium [13]: 0.6839 mM | Normalized cell survival (%) [13]: 78.3784% | Normalized urease activity(%) (urease [14]; log(CBS[μM]) 1.29073): 42.0322% | Normalized urease activity(%) (urease [14]; log(CBS[μM]) 1.59176): 39.1227% | Normalized urease activity(%) (urease [14]; log(CBS[μM]) 1.89279): 25.3581% | Normalized urease activity(%) (urease [14]; log(CBS[μM]) 2.19382): 25.0224% | Normalized urease activity(%) (in vitro) (urease [15]; CBS 2.0 μM): 117.5% | Normalized urease activity(%) (in vitro) (urease [15]; CBS 5.0 μM): 100.8% | Normalized urease activity(%) (in vitro) (urease [15]; CBS 10.0 μM): 95.4% | Normalized urease activity(%) (in vitro) (urease [15]; CBS 20.0 μM): 96.5% | Normalized urease activity(%) (in vitro) (urease [15]; CBS 50.0 μM): 100.0% | Normalized urease activity(%) (in vitro) (urease [15]; CBS 100.0 μM): 106.8% | Normalized urease activity(%) (in vitro) (urease [15]; CBS 200.0 μM): 98.8% | Normalized urease activity(%) (in vitro) (urease [16]; CBS 25.0 μM): 111.2% | Normalized urease activity(%) (in vitro) (urease [16]; CBS 50.0 μM): 127.8% | Normalized urease activity(%) (in vitro) (urease [16]; CBS 100.0 μM): 125.1% | Normalized urease activity(%) (in vitro) (urease [16]; CBS 200.0 μM): 113.5% | Normalized urease activity(%) (in vitro) (urease [17]; CBS 2.0 μM): 87.7% | Normalized urease activity(%) (in vitro) (urease [17]; CBS 5.0 μM): 84.1% | Normalized urease activity(%) (in vitro) (urease [17]; CBS 10.0 μM): 87.2% | Normalized urease activity(%) (in vitro) (urease [17]; CBS 50.0 μM): 91.4% | Normalized urease activity(%) (in vitro) (urease [17]; CBS 100.0 μM): 87.4% | Normalized urease activity(%) (in vitro) (urease [17]; CBS 200.0 μM): 86.8% | Normalized urease activity(%) (in vitro) (H. pylori urease [18]; CBS 2.0 μM): 102.1% | Normalized urease activity(%) (in vitro) (H. pylori urease [18]; CBS 5.0 μM): 93.2% | Normalized urease activity(%) (in vitro) (H. pylori urease [18]; CBS 10.0 μM): 103.8% | Normalized urease activity(%) (in vitro) (H. pylori urease [18]; CBS 20.0 μM): 86.7% | Normalized urease activity(%) (in vitro) (H. pylori urease [18]; CBS 30.0 μM): 92.9% | Normalized urease activity(%) (in vitro) (H. pylori urease [18]; CBS 50.0 μM): 109.1% | Normalized urease activity(%) (in vitro) (H. pylori urease [18]; CBS 100.0 μM): 102.9% | Normalized urease activity(%) (in vitro) (H. pylori urease [18]; CBS 200.0 μM): 94.9% | inhibitory effect on extracted H. pylori urease (H. pylori urease [18]; CBS up to 400 μM): little inhibitory effect | Normalized GTPase activity(%) (UreG [19]; CBS 20 μM): 50.4% | Normalized GTPase activity(%) (UreG [19]; CBS 50 μM): 22.6% | Normalized GTPase activity(%) (UreG [19]; CBS 100 μM): 35.8% | Normalized GTPase activity(%) (UreG [19]; CBS 200 μM): 20.4% | GTPase activity compared with that without CBS treatment (UreG [19]; [22]): approximately 20%

B1: Helicobacter pylori urease accessory protein UreG (natural protein)
chain: MVKIGVCGPVGSGKTALIEALTRHMSKDYDMAVITNDIYTKEDAEFMCKNSVMPRERIIGVETGGCPHTAIREDASMNLEAVEEMHGRFPNLELLLIESGGDNLSATFNPELADFTIFVIDVAEGDKIPRKGGPGITRSDLLVINKIDLAPYVGADLKVMERDSKKMRGEKPFIFTNIRAKEGLDDVIAWIKRNALLED
notes: also called HpUreG; apo-UreG; source: E. coli BL21(DE3), purified (HisTrap Ni-NTA, thrombin cleavage, EDTA, Superdex 75)
stoichiometry N [20]: 2

B2: Helicobacter pylori urease accessory protein UreE (natural protein)
chain: MIIERLVGNLRDLNPLDFSVDHVDLEWFETRKKIARFKTRQGKDIAIRLKDAPKLGLSQGDILFKEEKEIIAVNILDSEVIHIQAKSVAEVAKICYEIGNRHAALYYGESQFEFKTPFEKPTLALLEKLGVQNRVLSSKLDSKERLTVSMPHSEPNFKVSLASDFKVVVK
notes: also called apo-UreE
stoichiometry N [21]: 2
